In patent US20240051985A1, “METTL3 MODULATORS” (ACCENT THERAPEUTICS, INC., priority 2020, published 2024):

Tests used:
[1] = biological target: T1, FLT3 (Homo sapiens, UniProt P36888); test: FLT3 LanthaScreen assay; assay type: biochemical; conditions: Table 4
T1 sequence (P36888 27-993): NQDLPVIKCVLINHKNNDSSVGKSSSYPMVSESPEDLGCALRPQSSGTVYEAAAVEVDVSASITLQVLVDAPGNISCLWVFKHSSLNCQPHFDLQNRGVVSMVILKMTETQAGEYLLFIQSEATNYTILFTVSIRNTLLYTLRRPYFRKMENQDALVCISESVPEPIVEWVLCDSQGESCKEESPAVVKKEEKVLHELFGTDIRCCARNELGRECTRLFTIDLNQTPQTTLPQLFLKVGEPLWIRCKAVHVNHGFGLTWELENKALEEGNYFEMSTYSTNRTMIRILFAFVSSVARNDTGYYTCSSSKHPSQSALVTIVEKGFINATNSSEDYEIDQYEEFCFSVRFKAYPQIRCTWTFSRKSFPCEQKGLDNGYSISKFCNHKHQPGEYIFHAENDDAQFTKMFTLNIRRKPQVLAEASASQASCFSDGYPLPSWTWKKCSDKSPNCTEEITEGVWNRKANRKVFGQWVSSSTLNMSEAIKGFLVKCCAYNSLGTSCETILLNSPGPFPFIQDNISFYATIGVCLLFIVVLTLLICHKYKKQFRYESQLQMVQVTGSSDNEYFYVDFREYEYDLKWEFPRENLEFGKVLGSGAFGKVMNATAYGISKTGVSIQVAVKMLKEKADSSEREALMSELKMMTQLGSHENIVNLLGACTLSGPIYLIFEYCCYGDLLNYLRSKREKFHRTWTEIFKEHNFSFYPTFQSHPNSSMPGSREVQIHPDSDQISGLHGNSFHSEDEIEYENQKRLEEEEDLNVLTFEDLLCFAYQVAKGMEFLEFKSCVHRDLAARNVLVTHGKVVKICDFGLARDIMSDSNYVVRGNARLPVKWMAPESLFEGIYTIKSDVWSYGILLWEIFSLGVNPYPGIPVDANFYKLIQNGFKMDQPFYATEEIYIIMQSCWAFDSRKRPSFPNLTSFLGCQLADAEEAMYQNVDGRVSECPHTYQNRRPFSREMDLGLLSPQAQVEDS
Description: (§1) FLT3/FLT3-ITD LanthaScreen Assays
(§2) Assays were performed in a 10 μl-volume in 384-well polypropylene microplates (Perkin Elmer Proxiplate, cat. No. 6059480) at ambient temperature. Optimized 1× assay buffer was 50 mM Hepes pH 7.5, 2 mM DTT, 0.01% Tween, 0.01% BSA, 10 mM MgCl2. For compound screening FLT3 (final concentration, f.c.=[…]) or FLT3-ITD (f.c.=[…]) was added using a Multidrop Combi (ThermoFisher Scientific, Waltham, MA) and preincubated for 10 min. Reactions were started by adding fluorescein-poly GT (f.c.=200 nM) and ATP (f.c.=57 μM) substrates. Reactions proceeded for 40 minutes. The reactions were stopped with a detection mixture of EDTA (f.c.=20 mM) and terbium-conjugated anti-phoso tyrosine antibody pY20 (f.c.=2 nM). The plates were sealed and read on an Envision (PerkinElmer, Waltham, MA) using 340 nm excitation and emission reads at 495 and 520 nM.

[2] = biological target: METTL3/METTL14 (Homo sapiens, UniProt Q86U44); test: METTL3-14 standard enzyme assay (3H-SAM flashplate); conditions: Table 4; METTL3 biochemical assay
In short: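 Radiometric methyltransferase read-out: after quenching with excess unlabelled SAM (15 μM), biotinylated RNA was captured on streptavidin flashplates (2 h, 25° C) and counted. Reactions contained 2.5 nM enzyme (5 min preincubation), 100 nM RNA and 100 nM 3H-SAM, ran 30 min in HEPES pH 7.5 buffer with KCl, MgCl2, DTT.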

[3] = biological target: PRMT5-MEP50 (Homo sapiens, UniProt O14744); test: PRMT5 assay (3H-SAM flashplate); conditions: Table 4; PRMT5 biochemical assay
In short: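 Radiometric methyl-transfer read-out: 3H-methyl transferred to a 3′-biotinylated, acetylated H4 peptide substrate (100 nM) from 3H-SAM (250 nM), captured on streptavidin scintillation plates. Enzyme complex 2.5 nM, pH 8.0 Tris buffer with DTT and Tween, compound preincubation 5 min, 60 min reaction stopped with excess unlabeled SAM.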

[4] = biological target: T2, FLT3-ITD (Homo sapiens, UniProt P36888); test: FLT3-ITD LanthaScreen assay; assay type: biochemical; conditions: Table 4
T2 sequence (P36888 1-993): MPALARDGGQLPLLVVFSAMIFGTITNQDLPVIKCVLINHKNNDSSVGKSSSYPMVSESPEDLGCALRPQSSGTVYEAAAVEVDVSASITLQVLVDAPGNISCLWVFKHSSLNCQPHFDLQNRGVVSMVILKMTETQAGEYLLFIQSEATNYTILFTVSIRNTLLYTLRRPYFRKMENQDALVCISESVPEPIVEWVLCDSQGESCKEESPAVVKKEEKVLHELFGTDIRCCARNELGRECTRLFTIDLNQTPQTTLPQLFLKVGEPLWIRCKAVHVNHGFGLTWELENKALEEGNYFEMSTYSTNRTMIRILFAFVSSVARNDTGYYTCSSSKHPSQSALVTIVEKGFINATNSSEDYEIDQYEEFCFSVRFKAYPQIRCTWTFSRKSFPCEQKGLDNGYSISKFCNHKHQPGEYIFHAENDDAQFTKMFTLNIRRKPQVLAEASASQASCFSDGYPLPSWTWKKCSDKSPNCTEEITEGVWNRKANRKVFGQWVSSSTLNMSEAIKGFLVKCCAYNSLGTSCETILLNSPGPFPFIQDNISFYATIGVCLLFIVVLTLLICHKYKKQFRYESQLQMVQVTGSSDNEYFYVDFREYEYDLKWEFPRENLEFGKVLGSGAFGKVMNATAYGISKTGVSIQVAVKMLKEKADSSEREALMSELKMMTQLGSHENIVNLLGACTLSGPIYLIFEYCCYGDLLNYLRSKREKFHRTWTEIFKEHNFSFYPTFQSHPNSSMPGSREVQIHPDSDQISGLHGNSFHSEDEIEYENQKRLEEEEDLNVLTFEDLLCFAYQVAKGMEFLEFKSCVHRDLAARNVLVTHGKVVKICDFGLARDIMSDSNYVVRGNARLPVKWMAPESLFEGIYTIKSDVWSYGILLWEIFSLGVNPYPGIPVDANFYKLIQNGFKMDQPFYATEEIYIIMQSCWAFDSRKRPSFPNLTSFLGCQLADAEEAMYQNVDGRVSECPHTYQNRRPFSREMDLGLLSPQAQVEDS
Description: as §1, §2

PRMT5-MEP50, sequence (O14744 whole entry): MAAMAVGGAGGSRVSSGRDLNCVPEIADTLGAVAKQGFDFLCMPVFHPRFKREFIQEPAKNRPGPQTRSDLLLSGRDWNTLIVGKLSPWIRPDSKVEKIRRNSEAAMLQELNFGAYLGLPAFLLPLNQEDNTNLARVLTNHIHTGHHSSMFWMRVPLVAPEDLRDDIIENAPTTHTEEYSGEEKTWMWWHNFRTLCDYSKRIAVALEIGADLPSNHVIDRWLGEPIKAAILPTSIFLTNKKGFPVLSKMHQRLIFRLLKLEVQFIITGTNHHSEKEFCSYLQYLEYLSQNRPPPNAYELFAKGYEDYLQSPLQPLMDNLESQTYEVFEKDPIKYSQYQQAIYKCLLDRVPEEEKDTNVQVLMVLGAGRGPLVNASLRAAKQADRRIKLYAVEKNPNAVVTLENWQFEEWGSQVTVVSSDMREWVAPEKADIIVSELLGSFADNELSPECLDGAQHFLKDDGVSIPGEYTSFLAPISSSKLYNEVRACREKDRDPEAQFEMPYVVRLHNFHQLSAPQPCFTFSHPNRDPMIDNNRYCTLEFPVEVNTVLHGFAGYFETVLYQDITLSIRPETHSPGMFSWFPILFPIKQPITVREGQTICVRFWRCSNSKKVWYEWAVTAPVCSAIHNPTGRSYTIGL
PRMT5-MEP50, sequence (Q9BQA1 whole entry partner): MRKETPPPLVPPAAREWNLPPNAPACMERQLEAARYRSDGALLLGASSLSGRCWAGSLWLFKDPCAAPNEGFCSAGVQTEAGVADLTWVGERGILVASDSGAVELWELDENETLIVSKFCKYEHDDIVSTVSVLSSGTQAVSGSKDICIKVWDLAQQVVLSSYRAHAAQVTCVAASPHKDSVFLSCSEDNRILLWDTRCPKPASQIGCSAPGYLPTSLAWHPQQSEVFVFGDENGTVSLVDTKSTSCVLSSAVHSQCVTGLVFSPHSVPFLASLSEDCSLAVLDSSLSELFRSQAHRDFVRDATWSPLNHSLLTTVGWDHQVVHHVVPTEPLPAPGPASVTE
METTL3/METTL14, sequence (Q86U44 whole entry, species assumed): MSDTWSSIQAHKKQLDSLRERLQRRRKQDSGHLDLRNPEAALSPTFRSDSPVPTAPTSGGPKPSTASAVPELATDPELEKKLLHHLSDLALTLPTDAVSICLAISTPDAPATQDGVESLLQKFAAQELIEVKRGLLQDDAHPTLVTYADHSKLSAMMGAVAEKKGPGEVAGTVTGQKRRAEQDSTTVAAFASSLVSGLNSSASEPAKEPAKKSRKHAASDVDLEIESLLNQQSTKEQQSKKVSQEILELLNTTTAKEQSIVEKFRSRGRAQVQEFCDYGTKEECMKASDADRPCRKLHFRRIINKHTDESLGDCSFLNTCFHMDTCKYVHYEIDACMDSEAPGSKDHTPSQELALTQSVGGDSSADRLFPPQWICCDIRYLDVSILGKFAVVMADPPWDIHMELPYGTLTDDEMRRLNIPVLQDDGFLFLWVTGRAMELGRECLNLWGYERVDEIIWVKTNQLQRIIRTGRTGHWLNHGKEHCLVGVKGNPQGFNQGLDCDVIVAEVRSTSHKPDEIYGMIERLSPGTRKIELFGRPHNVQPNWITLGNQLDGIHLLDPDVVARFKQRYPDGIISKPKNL
METTL3/METTL14, sequence (Q9HCE5 whole entry partner, species assumed): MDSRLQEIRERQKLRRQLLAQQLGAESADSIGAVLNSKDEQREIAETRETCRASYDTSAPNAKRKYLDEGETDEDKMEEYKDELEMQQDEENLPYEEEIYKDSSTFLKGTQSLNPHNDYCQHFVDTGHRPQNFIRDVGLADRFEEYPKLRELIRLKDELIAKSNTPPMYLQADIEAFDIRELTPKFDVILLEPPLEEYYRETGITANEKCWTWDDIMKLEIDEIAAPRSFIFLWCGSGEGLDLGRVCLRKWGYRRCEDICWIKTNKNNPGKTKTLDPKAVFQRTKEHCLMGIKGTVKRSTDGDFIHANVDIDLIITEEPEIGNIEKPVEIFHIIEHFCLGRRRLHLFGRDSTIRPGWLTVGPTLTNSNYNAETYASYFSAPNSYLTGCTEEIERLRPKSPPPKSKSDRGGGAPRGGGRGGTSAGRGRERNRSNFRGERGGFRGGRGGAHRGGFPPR

## CN1CCC(N(CCC#N)C(=O)[C@H]2O[C@@H](n3cc(-c4ccn(C)n4)c4c(N)ncnc43)[C@H](O)[C@@H]2O)CC1 [Compound I-144]
[1]
  IC50: ≥ 1000 nM
[2]
  IC50: 100 to 1000 nM
[3]
  IC50: 10 to 100 nM
[4]
  IC50: ≥ 1000 nM

## Cn1ccc(-c2cn([C@@H]3O[C@H](C(=O)N4CCCC(NS(C)(=O)=O)C4)[C@@H](O)[C@H]3O)c3ncnc(N)c23)n1 (stereo in doubt) [Compound I-185]
[1]
  IC50: ≥ 1000 nM
[2]
  IC50: ≥ 1000 nM
[3]
  IC50: 100 to 1000 nM
[4]
  IC50: ≥ 1000 nM

## Cn1ccc(-c2cn([C@@H]3O[C@H](C(=O)N[C@@H]4CCCNC4)[C@@H](O)[C@H]3O)c3ncnc(N)c23)n1 [Compound I-220]
[1]
  IC50: ≥ 1000 nM
[2]
  IC50: 100 to 1000 nM
[3]
  IC50: < 10 nM
[4]
  IC50: ≥ 1000 nM

## CN1CCC(N(CCCO)C(=O)[C@H]2O[C@@H](n3cc(-c4ccn(C)n4)c4c(N)ncnc43)[C@H](O)[C@@H]2O)CC1 [Compound I-145]
[1]
  IC50: ≥ 1000 nM
[2]
  IC50: 100 to 1000 nM
[3]
  IC50: < 10 nM
[4]
  IC50: ≥ 1000 nM

## Cn1ccc(-c2cn([C@@H]3O[C@H](C(=O)NC4CCNC(C)(C)C4)[C@@H](O)[C@H]3O)c3ncnc(N)c23)n1 (stereo partly drawn) [Compound I-189]
[1]
  IC50: ≥ 1000 nM
[2]
  IC50: 100 to 1000 nM
[3]
  IC50: 10 to 100 nM
[4]
  IC50: ≥ 1000 nM

## Cn1ccc(-c2cn([C@@H]3O[C@H](C(N)=O)[C@@H](O)[C@H]3O)c3ncnc(N)c23)n1 [Compound I-54]
[1]
  IC50: ≥ 1000 nM
[2]
  IC50: ≥ 1000 nM
[3]
  IC50: 100 to 1000 nM
[4]
  IC50: ≥ 1000 nM

## CNc1ccc2ccc(NC(=O)[C@H]3O[C@@H](n4cc(-c5ccn(C)n5)c5c(N)ncnc54)[C@@H](F)[C@@H]3O)cc2n1 [Compound I-61]
[1]
  IC50: 100 to 1000 nM
[2]
  IC50: < 10 nM
[3]
  IC50: 10 to 100 nM
[4]
  IC50: 100 to 1000 nM

## C[C@H](NC(=O)[C@H]1O[C@@H](n2cc(-c3ccn(C)n3)c3c(N)ncnc32)[C@H](O)[C@@H]1O)C1CCNCC1 [Compound I-195]
[1]
  IC50: ≥ 1000 nM
[2]
  IC50: 100 to 1000 nM
[3]
  IC50: 100 to 1000 nM
[4]
  IC50: ≥ 1000 nM

## COCCn1ccc(-c2cn([C@@H]3O[C@H](C(=O)NC4CCN(C)CC4)[C@@H](O)[C@H]3O)c3ncnc(N)c23)n1 [Compound I-57, (2S,3S,4R,5R)-5-(4-amino-5-(1-(2-methoxyethyl)-1H-pyrazol-3-yl)-7H-pyrrolo[2,3-d]pyrimidin-7-yl)-3,4-dihydroxy-N-(1-methylpiperidin-4-yl)tetrahydrofuran-2-carboxamide]
[1]
  IC50: ≥ 1000 nM
[2]
  IC50: 100 to 1000 nM
[3]
  IC50: 100 to 1000 nM
[4]
  IC50: ≥ 1000 nM

## Cn1ccc(-c2cn([C@@H]3O[C@H](C(=O)NC4CCc5nc[nH]c5C4)[C@@H](O)[C@H]3O)c3ncnc(N)c23)n1 (stereo partly drawn) [Compound I-194]
[1]
  IC50: ≥ 1000 nM
[2]
  IC50: 10 to 100 nM
[3]
  IC50: 100 to 1000 nM
[4]
  IC50: ≥ 1000 nM

## COC(=O)[C@@H](N)CCNC(=O)[C@H]1O[C@@H](n2cc(-c3ccn(C)n3)c3c(N)ncnc32)[C@H](O)[C@@H]1O [Compound I-42, methyl (2S)-2-amino-4-{[(2S,3S,4R,5R)-5-[4-amino-5-(1-methyl-1H-pyrazol-3-yl)-7H-pyrrolo[2,3-d]pyrimidin-7-yl]-3,4-dihydroxyoxolan-2-yl]formamido}butanoate]
[1]
  IC50: ≥ 1000 nM
[2]
  IC50: ≥ 1000 nM
[3]
  IC50: 100 to 1000 nM
[4]
  IC50: ≥ 1000 nM

## Cn1ccc(-c2cn([C@@H]3O[C@H](C(=O)NCC[C@H](N)C(=O)O)[C@@H](O)[C@H]3O)c3ncnc(N)c23)n1 [Compound I-43]
[1]
  IC50: ≥ 1000 nM
[2]
  IC50: 100 to 1000 nM
[3]
  IC50: ≥ 1000 nM
[4]
  IC50: ≥ 1000 nM

## C[C@@H]1C[C@@H](NC(=O)[C@H]2O[C@@H](n3cc(-c4ccn(C)n4)c4c(N)ncnc43)[C@H](O)[C@@H]2O)CCN1C [Compound I-233]
[1]
  IC50: ≥ 1000 nM
[2]
  IC50: 100 to 1000 nM
[3]
  IC50: 100 to 1000 nM
[4]
  IC50: ≥ 1000 nM

## CN1CCC(N(CCCN)C(=O)[C@H]2O[C@@H](n3cc(-c4ccn(C)n4)c4c(N)ncnc43)[C@H](O)[C@@H]2O)CC1 [Compound I-146]
[1]
  IC50: ≥ 1000 nM
[2]
  IC50: 10 to 100 nM
[3]
  IC50: 10 to 100 nM
[4]
  IC50: ≥ 1000 nM

## CC1CC(NC(=O)[C@H]2O[C@@H](n3cc(-c4ccn(C)n4)c4c(N)ncnc43)[C@H](O)[C@@H]2O)CCN1 (stereo in doubt) [Compound I-212]
[1]
  IC50: ≥ 1000 nM
[2]
  IC50: 100 to 1000 nM
[3]
  IC50: 100 to 1000 nM
[4]
  IC50: ≥ 1000 nM

## CN1[C@@H]2CC[C@H]1C[C@H](NC(=O)[C@H]1O[C@@H](n3cc(-c4ccn(C)n4)c4c(N)ncnc43)[C@H](O)[C@@H]1O)C2 [Compound I-205]
[1]
  IC50: ≥ 1000 nM
[2]
  IC50: 100 to 1000 nM
[3]
  IC50: 100 to 1000 nM
[4]
  IC50: ≥ 1000 nM

## Cn1ccc(-c2cn([C@@H]3O[C@H](C(=O)N[C@H]4CCCNC4)[C@@H](O)[C@H]3O)c3ncnc(N)c23)n1 [Compound I-219]
[1]
  IC50: ≥ 1000 nM
[2]
  IC50: 100 to 1000 nM
[3]
  IC50: 10 to 100 nM
[4]
  IC50: ≥ 1000 nM

## Cn1ccc(-c2cn([C@@H]3O[C@H](C(=O)N[C@H]4CC[C@@](C)(O)CC4)[C@@H](O)[C@H]3O)c3ncnc(N)c23)n1 [Compound I-209]
[1]
  IC50: ≥ 1000 nM
[2]
  IC50: 100 to 1000 nM
[3]
  IC50: ≥ 1000 nM
[4]
  IC50: ≥ 1000 nM

## Cn1ccc(-c2cn([C@@H]3O[C@H](C(=O)N4CCC[C@@H](NS(C)(=O)=O)C4)[C@@H](O)[C@H]3O)c3ncnc(N)c23)n1 [Compound I-151]
[1]
  IC50: ≥ 1000 nM
[2]
  IC50: ≥ 1000 nM
[3]
  IC50: ≥ 1000 nM
[4]
  IC50: ≥ 1000 nM

## C[C@H]1C[C@H](NC(=O)[C@H]2O[C@@H](n3cc(-c4ccn(C)n4)c4c(N)ncnc43)[C@H](O)[C@@H]2O)CCN1C [Compound I-234]
[1]
  IC50: ≥ 1000 nM
[2]
  IC50: 100 to 1000 nM
[3]
  IC50: 100 to 1000 nM
[4]
  IC50: ≥ 1000 nM

## Cn1ccc(-c2cn([C@@H]3O[C@H](C(=O)NC4CCc5cnc(N)nc5C4)[C@@H](O)[C@H]3O)c3ncnc(N)c23)n1 (stereo partly drawn) [Compound I-188]
[1]
  IC50: ≥ 1000 nM
[2]
  IC50: 100 to 1000 nM
[3]
  IC50: 100 to 1000 nM
[4]
  IC50: ≥ 1000 nM
